We go through three compounds from US12201696B2, “Multiplexed analysis of materials for tissue delivery” (Georgia Tech Research Corporation, priority 2017, dated 2025).

In the test the test system is HEK293 cells stably transduced with a CMV-lox-GFP-stop-lox-RFP construct. The test is described as follows: Endocytosis inhibition in LGSL-RFP HEK cells. It is filed as cell-based. The conditions noted are these: for effect on in vitro endocytosis and functional Cre mRNA delivery of ATL1 and ATL2: LGSL-RFP cells. As to the method: For experiments shown in FIG. 1, cells were incubated with endocytosis inhibitors 1 hour prior to incubation with pooled LNPs against clathrin-mediated endocytosis (chlorpromazine, 100 μM, Alfa Aesar), caveolae-mediated endocytosis (genistein, 100 μM, TCI America), and macropinocytosis (5-(N-Ethyl-N-isopropyl) Amiloride, EIPA, 50 μM, Toronto Research Chemicals).
To determine whether FIND could simultaneously measure delivery mediated by many nanoparticles, 54 chemically distinct LNPs were formulated (Table 5, FIGS. 4J-4O); each carried Cre mRNA and a unique DNA barcode. The LNPs were administered to HEK cells in a 6 well plate using an mRNA dose of 10, 100, or 1000 ng/well, and a mRNA: DNA barcode mass ratio of 10:1. A dose-dependent increase in RFP^+ cells was observed, with over 80% of the cells RFP^+ at 1000 ng 72 hours after transfection (FIG. 1G). Barcodes were deep sequenced at all 3 doses, reasoning that LNPs which delivered barcodes at the lowest dose (4% RFP^+ cells) would also deliver LNPs at the middle dose (20% RFP^+ cells). There was a strong relationship between normalized delivery at these 2 doses (FIG. 1H). Cells treated with 1000 ng mRNA were also sequenced. As expected, the relationship between 1000 ng and either 10 or 100 ng weakened, since at this dose, nearly all the cells (>80% were RFP^+), leading to system saturation (FIG. 4P-4Q). Finally, it was evaluated whether the number of RFP^+ cells decreased when cells were pre-treated with Chlorpromazine, Genistein, or Ethylisopropyl amiloride (EIPA), which inhibit clathrin-, caveolin-, and macropinocytosis-mediated endocytosis, respectively. Compared to cells that were not treated with inhibitors, the number of RFP^+ cells decreased by 40-60%, recapitulating previous LNP results (Sahay, Querbes et al. 2013, Dahlman, Barnes et al. 2014, Wittrup, Ai et al. 2015) (FIG. 1I).
Like all high throughput screens, LNPs identified by FIND need to be validated. ATL1 and ATL2 (FIG. 3A, 3B-3E) were selected. […] (FIG. 6C-6F).

Regarding `CN(C)CCCN1c2ccccc2Sc2ccc(Cl)cc21` [Chlorpromazine, chlorpromazine], the “effect on in vitro endocytosis and functional Cre mRNA delivery of ATL1 and ATL2” value (shortened to “effect”) is given as “inhibited”. For the same compound, for the setting “Homo sapiens, HEK293, pre-treatment 1 hour before pooled 54 LNPs (100 ng total mRNA), chlorpromazine 100 μM, genistein 100 μM, EIPA 50 μM, read-out: decrease in number of RFP+ cells compared to cells not treated with inhibitors”, the inhibition at 100 µM was 40 to 60%.
As to `CCN(c1nc(N)c(C(=O)N=C(N)N)nc1Cl)C(C)C` [EIPA, 5-(N-Ethyl-N-isopropyl) Amiloride], the “effect” value is “only impacted LNP uptake”.
`O=c1c(-c2ccc(O)cc2)coc2cc(O)cc(O)c12` [Genistein, genistein]: the “effect” value is reported as “inhibited”.
